In a melting point compilation (Tetko et al.; mined from patent text by program, amines drawn as free bases though some values may be those of a salt):

Row | SMILES | melting point [°C]
1 | CC(=O)NCC1CN(c2ccc(N3CCC(n4ccnn4)C(F)C3)c(F)c2)C(=O)O1 (stereo not given) | 158 to 160
2 | Oc1ccc(CCCC2OCCO2)cc1 | 67 to 68
3 | CCCCCCCCCCCCCCCCCCOC(=O)N(C)CC(O)C(O)C(O)C(O)CO (stereo not given) | 85
4 | CCOC(=O)CCc1ccc(N[C@@H](CCC(N)=O)C(=O)O)cc1 | 180 to 181
5 | Clc1nc(NCCCCC=C(c2ccccc2)c2ccccc2)c2nc[nH]c2n1 | 206 to 207
6 | CS(=O)(=O)N(Cc1ccco1)CC(O)(Cn1cncn1)c1ccc(Cl)cc1Cl (stereo not given) | 114 to 115
7 | CC#CC(O)(C#CC)c1cc(-c2cccc(Cl)c2)ccc1N | 112 to 114
8 | CC1(c2nn(-c3c(Cl)cc(C(F)(F)F)cc3Cl)c(N)c2C#N)CC1(Cl)Cl (stereo not given) | 209 to 210
9 | COc1ccc(CN(C)CCCc2ccc(NC(=O)c3cccc4c(=O)c5cccc(OC)c5sc34)cc2)cc1OC | 144 to 146
10 | NCc1ccc2sc3ccccc3c(=O)c2c1 | 134 to 136
11 | CC(=O)n1ncn(N=Cc2cccnc2)c1=O | 164 to 166
12 | CC(C)c1c(Br)c(Br)c(-c2ccc(F)cc2)n1CC[C@H]1C[C@H](O)CC(=O)O1 (relative stereo) | 143
13 | COc1ccc2nccc(NC(=O)N3CCN(CCc4cnc5ccccc5n4)CC3)c2n1 | 138 to 140
14 | CCOCc1nc2c(N)nc3ccccc3c2n1CCCCCS(N)(=O)=O | 176 to 178
15 | c1ccc(-c2nnc3cc(C45CCC(CC4)C5)c(OCc4ccccn4)nn23)cc1 | 166 to 168
16 | OCCCCCCCCCCCCCCCCc1c[nH]c2ccccc12 | 79 to 80
17 | COC(=O)Nc1cc(F)ccc1C(=O)O | 162
18 | OCC1(Cc2ccccc2)CCC2(CC1)OCCO2 | 76 to 78
19 | COc1cc(OC)c2nc[nH]c(=O)c2c1 | 280 to 282
20 | CCCc1cc2c(c3c1[nH]c1ccc(OC)cc13)C(=O)N(CCN(C)C)C2=O | 207 to 208
21 | O=[N+]([O-])c1cccc(-c2nc(Nc3ccccc3)cc3cccnc23)c1 | 158 to 160
22 | O=C(O)Cc1ccc(OCc2cc(Cl)ccc2C(=O)O)cc1 | 197 to 201
23 | c1ccc(COc2cccc(CCCn3ccnc3)c2)cc1 | 82 to 83
24 | COc1ccc(-c2nc3ccccc3n3cncc23)cc1 | 187 to 188
25 | COc1cc2c(cc1OCc1ccccc1)CCCC(=O)N2Cc1cc(OC)c(OC)c(OC)c1 | 129 to 130

Row | SMILES | melting point [°C]
26 | COc1ccccc1N1CCN(CC(O)COc2cccc(C(=O)C=CN(C)C)c2)CC1 (stereo not given) | 131
27 | Cn1cc(-c2cccc(Cl)c2)c(=O)c(-c2cccc(Br)c2)c1 | 192
28 | CNC(=O)c1cc(C(=O)c2ccccc2)ccc1N | 140
29 | CSc1cccc(Oc2ncc(F)cc2C(=O)N[C@@H]2CCCC[C@@H]2O)c1 (relative stereo) | 99 to 101
30 | CCOP(=O)(Cc1ccc(NC(=O)C2=Cc3cc(C4CCCCC4)ccc3CC2)cc1)OCC | 137 to 138
31 | COc1cc(N2CCN(C)CC2)ccc1-c1cnn2c(N)c(-c3cccc(O)c3)cnc12 | 217 to 220
32 | NC(=O)OCC(OC(N)=O)c1ccccc1Cl (stereo not given) | 167 to 169
33 | CC1(C)Oc2ccc(C#N)cc2C(OC(=O)C2CCCN2S(=O)(=O)c2cccc([N+](=O)[O-])c2)C1Br (stereo not given) | 171 to 174
34 | O=c1cc(-c2cccc(F)c2)oc2ccc(OCCCCCCN3CCC(O)CC3)cc12 | 136 to 137
35 | CCc1cccc(CC)c1NC(=O)NC1CCC(c2ccccc2)CC1 (stereo not given) | 247 to 249
36 | COc1ccc2sc3c(c2c1)OCCNC3=O | 264 to 265
37 | CCOc1ccc(-c2nc(OC)ccc2N2CCN(c3ccc(OC)cc3)CC2)cc1 | 125 to 128
38 | CCCCCCCCCCCCCCCCCNC(=O)OCCSCCOC(=O)N(Cc1ccccn1)C(C)=O | 62 to 63
39 | COc1cc(N)c(Cl)cc1C(=O)NC1CCN(CC2CCN(C(=O)c3ccccc3)CC2)CC1 | 114 to 116
40 | Cc1ccc(C(Cn2ccnc2)C(=O)c2ccc(Cl)cc2Cl)cc1 (stereo not given) | 92 to 96
41 | CCOC(OCC)c1nc(C2CC2)nc(N)c1Cl | 104 to 110
42 | CONC(=O)c1ccccc1SCc1ccccc1 | 100 to 105
43 | C[C@H](NS(=O)(=O)c1ccc(-c2c(C#N)c3cc(C(F)(F)F)cnc3n2-c2ccccc2)nc1)C(F)(F)F | 186 to 188
44 | CCCCCCCCCCCCCCCC(=O)OCc1cc2c(s1)-c1ccccc1OC2c1ccccc1 (stereo not given) | 64 to 65
45 | Nc1ncc(-c2cnc3[nH]c(=O)n(CC4CCCCC4)c3n2)cn1 | > 250
46 | N#Cc1ccc(CCNC(=O)CC(=O)O)cc1 | 137 to 139
47 | Cc1ccc([N+](=O)[O-])c(C)c1C(=O)O | 109 to 112
48 | CCNC(=O)NC1=C(C(=O)OC)CCNC1=O | 103
49 | CCCc1c(OCC(O)COc2ccc(C(=O)O)cc2Cl)ccc(C(C)=O)c1O (stereo not given) | 100 to 103
50 | CCCCOc1c(CNC(=O)OC(C)(C)C)n(CC(C)(C)C)c(=O)c2cc(F)ccc12 | 149 to 150
